Measurements reported in patent US8889696B2, “Substituted pyrido[2,3-d]pyrimidin-7(8H)-ones and therapeutic uses thereof” (Temple University—Of The Commonwealth System Of Higher …, priority 2009, dated 2014).

Legend:
[1] = system: K562 (chronic myelogenous leukemia); experiment: Effect on tumor cell lines (Latham assay), K562; assay type: cell-based; details: Homo sapiens; K562 cells, examined 96 hours after treatment; read-out: Potencies (IC50) K 562
Protocol: (§1) The plated cells were treated 24 hours later with a compound of the invention dissolved in DMSO at multiple concentrations ranging from 0.01 μM to 100 μM. […] When necessary, the total number of viable cells was determined by trypsinizing the wells and counting the number of viable cells, as determined by trypan blue exclusion, using a hemacytometer.

[2] = system: DU145 (prostate cancer); experiment: Effect on tumor cell lines (Latham assay), DU145; assay type: cell-based; details: Homo sapiens, DU-145; DU145 cells, examined 96 hours after treatment; read-out: Potencies (IC50) DU 145
Protocol: as §1

Compound	melting point	IC50 [1]	IC50 [2]
CC(C)(C)OC(=O)N1CCN(c2ccc(Nc3ncc4cc(S(=O)(=O)c5ccccc5)c(=O)n(C5CCCC5)c4n3)nc2)CC1 [Example 65, 2-(5-(4-tert-butoxycarbonylpiperazin-1-yl)pyridin-2-ylamino)-8-cyclopentyl-6-(phenylsulfonyl)pyrido[2,3-d]pyrimidin-7(8H)-one]	115 to 116 °C	10 to 25 µM	> 100 µM
CC(=O)N1CCN(c2ncc3cc(S(=O)(=O)c4ccc(Cl)cc4)c(=O)n(C)c3n2)CC1 [Example 8, 6-(4-chlorophenylsulfonyl)-2-(4-acetylpiperazin-1-yl)-8-methylpyrido[2,3-d]pyrimidin-7(8H)-one]	264 to 268 °C	50 to 100 µM	50 to 100 µM
Cn1c(=O)c(S(=O)(=O)c2ccc(Br)cc2)cc2cnc(Nc3ccc4[nH]ccc4c3)nc21 [Example 18, 2-(1H-indol-5-ylamino)-6-(4-bromophenylsulfonyl)-8-methylpyrido[2,3-d]pyrimidin-7(8H)-one]	316 to 320 °C	1 to 10 µM	1 to 10 µM
O=c1c(S(=O)(=O)c2ccccc2)cc2cnc(Nc3ccc4[nH]ccc4c3)nc2n1C1CCCC1 [Example 55, 2-(1H-indol-5-ylamino)-8-cyclopentyl-6-(phenylsulfonyl)pyrido[2,3-d]pyrimidin-7(8H)-one]	272 to 273 °C	1 to 10 µM	1 to 10 µM
O=c1c(S(=O)(=O)c2ccc(Cl)cc2)cc2cnc(Nc3cccc4[nH]ccc34)nc2n1C1CCCCC1 [Example 53, 2-(1H-indol-4-ylamino)-6-(4-chlorophenylsulfonyl)-8-cyclohexylpyrido[2,3-d]pyrimidin-7(8H)-one]	300 to 302 °C	10 to 25 µM	> 100 µM
Cc1ccc(S(=O)(=O)c2cc3cnc(Nc4cccc5[nH]ccc45)nc3n(C)c2=O)cc1 [Example 16, 2-(1H-indol-4-ylamino)-8-methyl-6-tosylpyrido[2,3-d]pyrimidin-7(8H)-one]	295 to 300 °C	1 to 10 µM	1 to 10 µM
Cn1c(=O)c(S(=O)(=O)c2ccccc2)cc2cnc(Nc3cnc4[nH]ccc4c3)nc21 [Example 22, 2-(1H-pyrrolo[2,3-b]pyridin-5-ylamino)-8-methyl-6-(phenylsulfonyl)pyrido[2,3-d]pyrimidin-7(8H)-one]	280 to 284 °C	< 1 µM	< 1 µM
Cn1c(=O)c(S(=O)(=O)c2ccc(Cl)cc2)cc2cnc(NCCCN3CCOCC3)nc21 [Example 7, 2-(3-morpholinopropylamino)-6-(4-chlorophenylsulfonyl)-8-methylpyrido[2,3-d]pyrimidin-7(8H)-one]	160 to 164 °C	25 to 50 µM	25 to 50 µM
COc1ccc(Nc2ncc3cc(S(=O)(=O)c4ccc(C)cc4)c(=O)n(C)c3n2)cc1 [Example 20, 2-(4-methoxyphenylamino)-8-methyl-6-tosylpyrido[2,3-d]pyrimidin-7(8H)-one]	336 to 340 °C	50 to 100 µM	> 100 µM
Cc1ccc(S(=O)(=O)c2cc3cnc(Nc4ccc5[nH]ccc5c4)nc3n(C)c2=O)cc1 [Example 17, 2-(1H-indol-5-ylamino)-8-methyl-6-tosylpyrido[2,3-d]pyrimidin-7(8H)-one]	310 to 314 °C	< 1 µM	< 1 µM
COc1cc(Nc2ncc3cc(S(=O)(=O)c4ccccc4)c(=O)n(C4CCCC4)c3n2)cc(OC)c1OC [Example 62, 2-(3,4,5-trimethoxyphenylamino)-8-cyclopentyl-6-(phenylsulfonyl)pyrido[2,3-d]pyrimidin-7(8H)-one]	119 to 120 °C	1 to 10 µM	1 to 10 µM
CSc1ncc2cc(S(=O)(=O)c3ccccc3)c(=O)[nH]c2n1 [Example 68, 2-(methylsulfanyl)-6-(phenylsulfonyl)pyrido[2,3-d]pyrimidin-7(8H)-one]	280 °C (dec.)	> 100 µM	> 100 µM
Cc1ccc(S(=O)(=O)c2cc3cnc(Nc4cccc5cccnc45)nc3n(C)c2=O)cc1 [Example 14, 8-methyl-2-(quinolin-8-ylamino)-6-tosylpyrido[2,3-d]pyrimidin-7(8H)-one]	> 350 °C	10 to 25 µM	10 to 25 µM
Cn1c(=O)c(S(=O)(=O)c2ccc(Cl)cc2)cc2cnc(Nc3ccc(Cl)cc3)nc21 [Example 3, 2-(4-chlorophenylamino)-6-(4-chlorophenylsulfonyl)-8-methylpyrido[2,3-d]pyrimidin-7(8H)-one]	> 300 °C	10 to 25 µM	10 to 25 µM
CN1CCN(c2ccc(Nc3ncc4cc(S(=O)(=O)c5ccc(Cl)cc5)c(=O)n(C5CCCCC5)c4n3)cc2)CC1 [Example 50, 2-(4-(4-methylpiperazin-1-yl)phenylamino)-6-(4-chlorophenylsulfonyl)-8-cyclohexylpyrido[2,3-d]pyrimidin-7(8H)-one]	259 to 260 °C	1 to 10 µM	1 to 10 µM
O=c1c(S(=O)(=O)c2ccc(Cl)cc2)cc2cnc(Nc3ccc4[nH]ccc4c3)nc2n1C1CCCCC1 [Example 51, 2-(1H-indol-5-ylamino)-6-(4-chlorophenylsulfonyl)-8-cyclohexylpyrido[2,3-d]pyrimidin-7(8H)-one]	305 to 307 °C	10 to 25 µM	25 to 50 µM
CN1CCN(CCNc2ncc3cc(S(=O)(=O)c4ccc(Cl)cc4)c(=O)n(C)c3n2)CC1 [Example 9, 2-(2-(4-methylpiperazin-1-yl)ethylamino)-6-(4-chlorophenylsulfonyl)-8-methylpyrido[2,3-d]pyrimidin-7(8H)-one]	176 to 180 °C	10 to 25 µM	25 to 50 µM
COC(=O)c1ccc(S(=O)(=O)c2cc3cnc(Nc4ccc5[nH]ccc5c4)nc3n(C)c2=O)cc1 [Example 26, methyl 4-(2-(1H-indol-5-ylamino)-7,8-dihydro-8-methyl-7-oxopyrido[2,3-d]pyrimidin-6-ylsulfonyl)benzoate]	305 to 310 °C	1 to 10 µM	1 to 10 µM
Cn1c(=O)c(S(=O)(=O)c2ccc(Cl)cc2)cc2cnc(Nc3cccc4[nH]ccc34)nc21 [Example 31, 2-(1H-indol-4-ylamino)-6-(4-chlorophenylsulfonyl)-8-methylpyrido[2,3-d]pyrimidin-7(8H)-one]	320 to 324 °C	1 to 10 µM	1 to 10 µM
Cn1c(=O)c(S(=O)(=O)c2ccc(F)cc2)cc2cnc(Nc3ccc4[nH]ccc4c3)nc21 [Example 11]	278 to 282 °C	< 1 µM	< 1 µM
COc1ccc(S(=O)(=O)c2cc3cnc(Nc4cccc5[nH]ccc45)nc3n(C)c2=O)cc1 [Example 30, 2-(1H-indol-4-ylamino)-6-(4-methoxyphenylsulfonyl)-8-methylpyrido[2,3-d]pyrimidin-7(8H)-one]	289 to 292 °C	1 to 10 µM	1 to 10 µM
